Experimental data published in PubChem BioAssay AID248 (DTP/NCI, 2004).
Toxic doses and inconclusive results are not listed. No stated cut-off is given here; in the data, active means T/C of 150% or more; inactive means T/C below 125%.

System: L1210 leukemia ip in BDF1 mice, survival T/C
Experiment: NCI In Vivo Anticancer Drug Screen. Data for tumor model L1210 Leukemia (intraperitoneal) in B6D2F1 (BDF1) mice
Settings: endpoint: mean survival time, higher = longer survival
Method in brief: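 Antitumor effect is assessed in tumor-bearing animals. Survival in the compound arm is compared with a vehicle-dosed control arm and expressed as their quotient.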

[1] = dose: 100.0 mg/kg/injection, schedule: Q01DX001 (ip), vehicle: saline
[2] = dose: 100.0 mg/kg/injection, schedule: Q01DX009 (ip), vehicle: saline
[3] = dose: 200.0 mg/kg/injection, schedule: Q01DX001 (ip), vehicle: saline
[4] = dose: 100.0 mg/kg/injection, schedule: Q01DX009 (ip), vehicle: saline with Tween-80
[5] = dose: 200.0 mg/kg/injection, schedule: Q01DX009 (ip), vehicle: saline with Tween-80
[6] = dose: 100.0 mg/kg/injection, schedule: Q01DX009 (ip), vehicle: Klucel (hydroxypropylcellulose) (HPC)
[7] = dose: 200.0 mg/kg/injection, schedule: Q01DX009 (ip), vehicle: Klucel (hydroxypropylcellulose) (HPC)

Measured: T/C

O=C(/C=C/c1ccccc1)N1CCOCC1
inactive: dose: 50.0 mg/kg/injection, schedule: Q01DX009 (ip), vehicle: saline 95 % of control | [1] 97 % of control | [2] 97 % of control | [3] 95 % of control

O=C(Nc1cc2c(cc1Br)OCO2)C(Cl)Cl
inactive: [4] 95 % of control | [5] 120 % of control | dose: 400.0 mg/kg/injection, schedule: Q01DX009 (ip), vehicle: saline with Tween-80 92 % of control

COc1cc(/C=N\N=C\c2ccc(F)cc2)cc(OC)c1OC
inactive: [6] 93 % of control | [7] 93 % of control | dose: 400.0 mg/kg/injection, schedule: Q01DX009 (ip), vehicle: Klucel (hydroxypropylcellulose) (HPC) 88 % of control

Cc1ccc2nc(-c3ccc(N)cc3)sc2c1
inactive: [4] 96 % of control | [5] 91 % of control

COc1ccc(NC(=O)NNC(=O)CCCC(=O)NNC(=O)Nc2ccc(OC)cc2)cc1
inactive: dose: 50.0 mg/kg/injection, schedule: Q01DX001 (ip), vehicle: saline 112 % of control | [1] 102 % of control | [3] 93 % of control | dose: 400.0 mg/kg/injection, schedule: Q01DX001 (ip), vehicle: saline 93 % of control

CCOC(=O)CSC(=S)N1CCOCC1
inactive: dose: 100.0 mg/kg/injection, schedule: Q01DX001 (ip), vehicle: Klucel (hydroxypropylcellulose) (HPC) 94 % of control | dose: 200.0 mg/kg/injection, schedule: Q01DX001 (ip), vehicle: Klucel (hydroxypropylcellulose) (HPC) 97 % of control | dose: 400.0 mg/kg/injection, schedule: Q01DX001 (ip), vehicle: Klucel (hydroxypropylcellulose) (HPC) 102 % of control

O=c1[nH][nH]c(=O)c2c1CCCC2
inactive: dose: 50.0 mg/kg/injection, schedule: Q01DX009 (ip), vehicle: saline with Tween-80 98 % of control | [4] 95 % of control | [5] 109 % of control

NC(N)=NCCCCCC(=O)O
inactive: [2] 95 % of control | dose: 100.0 mg/kg/injection, schedule: Q04DX003 (ip), vehicle: saline 103 % of control | dose: 200.0 mg/kg/injection, schedule: Q01DX009 (ip), vehicle: saline 88 % of control | dose: 200.0 mg/kg/injection, schedule: Q04DX003 (ip), vehicle: saline 100 % of control | dose: 400.0 mg/kg/injection, schedule: Q04DX003 (ip), vehicle: saline 101 % of control

CNCC(=O)Nc1ccc(NC(=O)CNC)cc1
inactive: dose: 100.0 mg/kg/injection, schedule: Q04DX002 (ip), vehicle: Klucel (hydroxypropylcellulose) (HPC) 96 % of control | dose: 200.0 mg/kg/injection, schedule: Q04DX002 (ip), vehicle: Klucel (hydroxypropylcellulose) (HPC) 104 % of control

O=C1c2cc(F)ccc2-c2cc([N+](=O)[O-])ccc21
inactive: dose: 100.0 mg/kg/injection, schedule: Q01DX001 (ip), vehicle: carboxymethylcellulose (CMC) 94 % of control | dose: 200.0 mg/kg/injection, schedule: Q01DX001 (ip), vehicle: carboxymethylcellulose (CMC) 94 % of control | dose: 400.0 mg/kg/injection, schedule: Q01DX001 (ip), vehicle: carboxymethylcellulose (CMC) 99 % of control

CC(Cc1ccccc1)NCCc1c2ccccc2nc2ccccc12 (configuration not stated)
inactive: dose: 12.5 mg/kg/injection, schedule: Q01DX009 (ip), vehicle: Klucel (hydroxypropylcellulose) (HPC) 101 % of control | dose: 25.0 mg/kg/injection, schedule: Q01DX009 (ip), vehicle: Klucel (hydroxypropylcellulose) (HPC) 102 % of control | dose: 50.0 mg/kg/injection, schedule: Q01DX009 (ip), vehicle: Klucel (hydroxypropylcellulose) (HPC) 98 % of control | [6] 104 % of control | [7] 91 % of control
